Measurements taken from PubChem BioAssay (NCI).
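In this assay, cells in 96-well plates receive the compound at five concentrations for 48 hours. Endpoints are linearly interpolated between the surrounding concentrations. GI50 marks 50% less growth. TGI: concentration producing complete growth inhibition.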

Columns and labels:
Assay in all cases: growth of human tumour cells (NCI), 48 h; in the data active = GI50 below about 0.43 µM; inactive = the rest
[1] = test system: SK-OV-3 ovarian
[2] = test system: MALME-3M melanoma
[3] = test system: NCI-H522 lung
[4] = test system: LOX IMVI melanoma
[5] = test system: TK-10 renal
[6] = test system: NCI-H23 lung
[7] = test system: CCRF-CEM leukemia
[8] = test system: MDA-MB-231 breast
[9] = test system: UACC-62 melanoma
[10] = test system: UO-31 renal
[11] = test system: SN12C renal
[12] = test system: A498 renal
[13] = test system: OVCAR-3 ovarian
[14] = test system: HCC-2998 colon
[15] = test system: HOP-62 NSCLC
[16] = test system: ACHN renal
[17] = test system: RXF 393 renal
[18] = test system: HCT-116 colon
[19] = test system: SNB-19 CNS
[20] = test system: MDA-MB-435
[21] = test system: NCI-H226 lung
[22] = test system: DU-145 prostate
[23] = test system: KM12 colon
[24] = test system: SF-295 CNS
[25] = test system: PC-3 prostate
[26] = test system: SNB-75 CNS
[27] = test system: HCT-15 colon
[28] = test system: NCI-H460 lung
[29] = test system: COLO 205 colon
[30] = test system: U251 CNS
[31] = test system: HS 578T breast
[32] = test system: OVCAR-5 ovarian
[33] = test system: SF-268 CNS
[34] = test system: OVCAR-4 ovarian
[35] = test system: BT-549 breast
[36] = test system: HL-60(TB) leukemia
[37] = test system: MOLT-4 leukemia
[38] = test system: SR leukemia
[39] = test system: M14 melanoma
[40] = test system: MCF7 breast
[41] = test system: K-562 leukemia
[42] = test system: NCI/ADR-RES ovarian
[43] = test system: A549 NSCLC
[44] = test system: CAKI-1 renal
[45] = test system: OVCAR-8 ovarian
[46] = test system: RPMI-8226 leukemia
[47] = test system: UACC-257 melanoma
[48] = test system: SK-MEL-28 melanoma
[49] = test system: EKVX NSCLC
[50] = test system: SK-MEL-5 melanoma
[51] = test system: HT29 colon
[52] = test system: 786-0 renal
[53] = test system: SW-620 colon
[54] = test system: HOP-92 NSCLC
[55] = test system: SF-539 CNS
[56] = test system: SK-MEL-2 melanoma

Cc1cc(NN=C(c2ccc(O)cc2)c2ccc(O)cc2)c([N+](=O)[O-])cc1[N+](=O)[O-]
39.8 µM: TGI [31]
11.4 µM: TGI [3]
22.1 µM: TGI [52]
36.6 µM: TGI [32]
8.29 µM: TGI [47]
23.7 µM: TGI [10]
50.2 µM: TGI [38]
35.7 µM: TGI [18]
35.5 µM: TGI [35]
19.9 µM: TGI [1]
40.5 µM: TGI [29]
51.1 µM: TGI [44]
active: GI50 [50] 0.308 µM
0.935 µM: TGI [19]
37.5 µM: TGI [5]
28.7 µM: TGI [14]
22.2 µM: TGI [24]
47.3 µM: TGI [6]
19.4 µM: TGI [13]
40.1 µM: TGI [21]
19.3 µM: TGI [9]
29.5 µM: TGI [22]
4.16 µM: TGI [46]
45.6 µM: TGI [53]
8.57 µM: TGI [28]
24 µM: TGI [23]
18.2 µM: TGI [15]
14.6 µM: TGI [37]
57.3 µM: TGI [33]
20.7 µM: TGI [8]
6.56 µM: TGI [17]
20.4 µM: TGI [40]
34.8 µM: TGI [36]
81.2 µM: TGI [30]
21.1 µM: TGI [39]
inactive: GI50 [1] 2.98 µM | GI50 [2] 9.31 µM | GI50 [3] 1.08 µM | GI50 [4] 3.8 µM | GI50 [5] 4.53 µM | GI50 [6] 3.8 µM | GI50 [7] 3.33 µM | GI50 [8] 4.7 µM | GI50 [9] 4.77 µM | GI50 [10] 4.02 µM | GI50 [11] 6.79 µM | GI50 [12] 9.29 µM | GI50 [13] 4.14 µM | GI50 [14] 8.24 µM | GI50 [15] 4.11 µM | GI50 [16] 4.08 µM | GI50 [17] 1.79 µM | GI50 [18] 3.73 µM | GI50 [20] 3.46 µM | GI50 [21] 7.76 µM | GI50 [22] 9.83 µM | GI50 [23] 4.6 µM | GI50 [24] 4.91 µM | GI50 [25] 3.23 µM | GI50 [26] 6.84 µM | GI50 [27] 4.19 µM | GI50 [28] 2.62 µM | GI50 [29] 5.87 µM | GI50 [30] 5.39 µM | GI50 [31] 5.04 µM | GI50 [32] 11.1 µM | GI50 [33] 5.34 µM | GI50 [34] 6.38 µM | GI50 [35] 11.4 µM | GI50 [36] 2.09 µM | GI50 [37] 1.84 µM | GI50 [38] 5.55 µM | GI50 [39] 4.5 µM | GI50 [40] 2.93 µM | GI50 [41] 92.7 µM | GI50 [42] 3.75 µM | GI50 [43] 2.47 µM | GI50 [44] 18.7 µM | GI50 [45] 4.08 µM | GI50 [46] 1.32 µM | GI50 [47] 4.71 µM | GI50 [48] 5.59 µM | GI50 [49] 4.54 µM | GI50 [51] 5.98 µM | GI50 [52] 5.39 µM | GI50 [53] 8.83 µM
23.9 µM: TGI [12]
24.7 µM: TGI [11]
34 µM: TGI [7]
26.6 µM: TGI [49]
> 100 µM: TGI [16] | TGI [34] | TGI [41] | TGI [42] | TGI [43] | TGI [45] | TGI [51]
14.4 µM: TGI [20]
53.6 µM: TGI [27]
60.5 µM: TGI [26]
21.2 µM: TGI [4] | TGI [48]
23.2 µM: TGI [2]
3.74 µM: TGI [50]

CC(C)Cc1ccc(C(C)C(=O)O)cc1 (centres undefined)
> 100 µM: TGI [6]

COc1ccc(-c2nc(-c3cnccn3)n(C3OC(CO)C(O)C3O)n2)cc1 (centres undefined)
> 10 µM: TGI [1] | TGI [2] | TGI [3] | TGI [4] | TGI [5] | TGI [54] | TGI [6] | TGI [7] | TGI [9] | TGI [10] | TGI [11] | TGI [13] | TGI [14] | TGI [16] | TGI [19] | TGI [20] | TGI [55] | TGI [21] | TGI [23] | TGI [24] | TGI [25] | TGI [26] | TGI [27] | TGI [28] | TGI [30] | TGI [56] | TGI [32] | TGI [33] | TGI [34] | TGI [35] | TGI [36] | TGI [37] | TGI [38] | TGI [39] | TGI [40] | TGI [41] | TGI [42] | TGI [43] | TGI [45] | TGI [47] | TGI [49] | TGI [51] | TGI [52] | TGI [53]
